Measured values reported in paper PMC12152147, “DDB1 engagement defines the selectivity of S656 analogs for cyclin K degradation over CDK inhibition” (EMBO Reports, 2025).
Read-outs that look alike come from different tables or passages of the source.

Legend:
OCI-AML5 cells = experiment: Dose-response proliferative assay in OCI-AML5 (4 days, CellTiterGlo); type: cell-based, H. sapiens
Summary of the method: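 OCI-AML5 cells in αMEM, 10% heat-inactivated FBS plus 10 ng/mL GM-CSF, 300 cells/well, exposed to 8-point 1:4 serial dilutions (10 μM down to 0.5 nM). Viability read after 4 days in culture at 37 °C, 5% CO2.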

[1] = system: OCI-AML5 cells expressing shRNAs targeting CDK1, 2, 4, 7, 9, cyclin K; experiment: Dose response in OCI-AML5 expressing shRNAs targeting CDK1, 2, 4, 7, 9, cyclin K or control; type: cell-based, H. sapiens; settings: for Class: class from shRNA IC50 profile and cyclin K-eGFP degradation; for class based on cellular selectivity: IC50 in shRNA OCI-AML5 cells and cyclin KeGFP degradation
CDK9/CyclinT = molecular target: T1, CDK9/CyclinT (Homo sapiens, UniProt P50750); experiment: CDK9/CyclinT in vitro kinase activity, single concentration 1 μM; type: biochemical; settings: single concentration 1 μM
T1 construct: purchased BPS Bioscience 79628
T1 sequence (P50750 whole entry): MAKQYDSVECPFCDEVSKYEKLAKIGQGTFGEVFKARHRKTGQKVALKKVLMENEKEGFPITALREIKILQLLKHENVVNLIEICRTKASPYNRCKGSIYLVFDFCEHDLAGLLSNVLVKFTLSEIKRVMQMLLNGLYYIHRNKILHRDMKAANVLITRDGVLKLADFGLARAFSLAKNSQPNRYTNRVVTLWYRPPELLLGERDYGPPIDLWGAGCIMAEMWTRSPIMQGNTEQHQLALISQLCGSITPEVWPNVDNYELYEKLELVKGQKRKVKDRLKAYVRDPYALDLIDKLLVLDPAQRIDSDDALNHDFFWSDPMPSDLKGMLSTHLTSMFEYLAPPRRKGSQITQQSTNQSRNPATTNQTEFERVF
T1 sequence (O60563 whole entry partner): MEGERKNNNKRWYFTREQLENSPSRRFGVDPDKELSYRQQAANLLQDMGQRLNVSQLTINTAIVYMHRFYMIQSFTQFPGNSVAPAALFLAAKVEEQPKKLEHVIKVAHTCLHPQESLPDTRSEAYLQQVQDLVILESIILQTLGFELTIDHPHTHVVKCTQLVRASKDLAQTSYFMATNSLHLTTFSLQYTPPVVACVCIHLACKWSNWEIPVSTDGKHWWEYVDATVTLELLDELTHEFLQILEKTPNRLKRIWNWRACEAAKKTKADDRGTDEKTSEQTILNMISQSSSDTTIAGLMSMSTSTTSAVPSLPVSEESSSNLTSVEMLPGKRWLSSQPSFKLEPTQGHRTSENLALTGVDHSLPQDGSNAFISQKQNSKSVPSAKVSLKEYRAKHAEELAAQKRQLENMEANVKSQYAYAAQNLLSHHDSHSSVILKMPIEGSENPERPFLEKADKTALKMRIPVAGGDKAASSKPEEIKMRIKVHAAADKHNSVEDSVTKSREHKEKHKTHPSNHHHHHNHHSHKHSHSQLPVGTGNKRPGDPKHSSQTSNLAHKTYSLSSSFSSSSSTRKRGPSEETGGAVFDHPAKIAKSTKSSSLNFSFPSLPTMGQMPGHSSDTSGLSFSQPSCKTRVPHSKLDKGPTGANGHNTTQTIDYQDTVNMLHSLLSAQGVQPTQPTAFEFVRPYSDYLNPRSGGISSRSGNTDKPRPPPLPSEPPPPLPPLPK
Description: (§1) Kinase activity was assessed using the kinase assay kits from BPS Bioscience for CDK1, CDK9 and CDK12 with Kinase Glo MAX in duplicates. Compounds were tested at a single concentration of 1 μM for CDK1 and CDK9 activity, and in a dilution ranging from 0.64 nM to 50 μM for CDK12 activity. Chemiluminescence was read using the Neo Synergy BioTek plate reader.

CDK1 = molecular target: T2, CDK1 (Homo sapiens, UniProt P06493); experiment: CDK1 in vitro kinase activity, single concentration 1 μM; type: biochemical; settings: single concentration 1 μM
T2 construct: purchased BPS Bioscience 79597
T2 sequence (P06493 whole entry): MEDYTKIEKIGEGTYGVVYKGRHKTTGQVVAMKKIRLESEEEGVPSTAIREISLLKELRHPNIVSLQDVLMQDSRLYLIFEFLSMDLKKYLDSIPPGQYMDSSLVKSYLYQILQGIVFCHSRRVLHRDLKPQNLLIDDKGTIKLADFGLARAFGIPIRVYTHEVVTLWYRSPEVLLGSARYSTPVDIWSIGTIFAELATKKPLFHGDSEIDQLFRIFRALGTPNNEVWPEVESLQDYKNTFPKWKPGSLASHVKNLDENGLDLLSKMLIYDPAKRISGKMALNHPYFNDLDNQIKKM
T2 sequence (P14635 whole entry partner): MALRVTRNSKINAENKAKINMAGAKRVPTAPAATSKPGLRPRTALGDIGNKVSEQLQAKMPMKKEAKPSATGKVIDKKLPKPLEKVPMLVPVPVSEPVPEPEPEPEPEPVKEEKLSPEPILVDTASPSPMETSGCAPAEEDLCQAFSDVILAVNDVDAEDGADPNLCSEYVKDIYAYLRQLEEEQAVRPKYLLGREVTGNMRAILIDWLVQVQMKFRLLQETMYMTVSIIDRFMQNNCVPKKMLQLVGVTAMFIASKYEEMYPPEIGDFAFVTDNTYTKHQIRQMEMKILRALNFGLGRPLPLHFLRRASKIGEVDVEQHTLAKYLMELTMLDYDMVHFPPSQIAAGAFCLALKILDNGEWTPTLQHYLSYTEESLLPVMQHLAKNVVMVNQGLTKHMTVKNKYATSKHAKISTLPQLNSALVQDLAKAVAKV
Description: as §1

cyclin KeGFP = experiment: Cyclin KeGFP reporter system (eGFP/mCherry MFI by flow cytometry);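 further: 10 μM compound for 3 h relative to DMSO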; type: cell-based, H. sapiens; settings: cyclin K-eGFP reporter
Summary of the method: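 OCI-AML5 clone G7 carrying lentiviral cyclin KeGFP/mCherry reporter. eGFP and mCherry geometric MFI measured by flow cytometry; eGFP/mCherry ratio normalized to DMSO-treated cells.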

[2] = system: OCI-AML5 cells expressing shRNA targeting CUL4A or CUL4B; experiment: Dose response in OCI-AML5 expressing shRNAs targeting CUL4A, CUL4B or control; type: cell-based, H. sapiens; settings: ratio of IC50 in shCUL4A vs shCTRL OCI-AML5 cells
[3] = molecular target: T3, OCI-AML5 total protein extracts (cyclin K, CDKs, DDB1) (Homo sapiens, UniProt P45844); experiment: Pull-down with immobilized probes and quantitative mass spectrometry; type: binding, H. sapiens; settings: protein ABCG1 (P45844)
T3 construct: endogenous in cells; host or cells: OCI-AML5 total protein extract
Description: (§2) Probe compounds were immobilized through their terminal amine on NHS-sepharose beads as previously described (Médard et al, [2015]). The prepared beads were then washed in PBS and equilibrated in Triton X-100 buffer. For each replicate, 1–2 mg of total proteins (2 mg/ml) were incubated end-over-end with 25 μl of beads overnight at 4 °C in low protein binding microtubes (Sarstedt). The samples were then washed twice in Triton X-100 buffer, transferred to new microtubes and further washed six times in PBS including another microtube transfer at the last wash. Beads pellets were resuspended in 50 mM ammonium bicarbonate and subjected to reduction, alkylation and tryptic digest as described above. Peptides were separated on an home-made reversed-phase column (150-μm i.d. by 200 mm) with a 56-min gradient from 10 to 30% ACN-0.2% FA and a 600-nl/min flow rate on a Easy nLC-1200 connected to a Exploris 480 (ThermoFisher Scientific, San Jose, CA). Each full MS spectrum acquired at a resolution of 120,000 was followed by tandem-MS (MS-MS) spectra acquisition on the most abundant multiply charged precursor ions for 3 s. Tandem-MS experiments were performed using higher energy collision dissociation (HCD) at a collision energy of 34%. The data were processed using PEAKS X Pro (Bioinformatics Solutions, Waterloo, ON) and a Uniprot human database (20366 entries). Mass tolerances on precursor and fragment ions were 10 ppm and 0.01 Da, respectively. Fixed modification was carbamidomethyl (C). Variable selected posttranslational modifications were acetylation (N-ter), oxidation (M), deamidation (NQ), phosphorylation (STY). The data were visualized with Scaffold 5.0 (protein threshold, 99%, with at least 2 peptides identified and a false-discovery rate [FDR] of 1% for peptides).
(§3) Differential Enrichment analysis of Proteomics data (DEP) package (Zhang et al, [2018]) in R was used to analyze the data (excluding proteins identified based on a single peptide), including data filtering, normalization, imputation of missing values and statistical testing of differentially expressed proteins.

[4] = molecular target: T4, OCI-AML5 total protein extracts (cyclin K, CDKs, DDB1) (Homo sapiens, UniProt Q6UXT9); experiment: as above; type: binding, H. sapiens; settings: protein ABHD15 (Q6UXT9)
T4 construct: endogenous in cells; host or cells: OCI-AML5 total protein extract
T4 sequence (Q6UXT9 24-468): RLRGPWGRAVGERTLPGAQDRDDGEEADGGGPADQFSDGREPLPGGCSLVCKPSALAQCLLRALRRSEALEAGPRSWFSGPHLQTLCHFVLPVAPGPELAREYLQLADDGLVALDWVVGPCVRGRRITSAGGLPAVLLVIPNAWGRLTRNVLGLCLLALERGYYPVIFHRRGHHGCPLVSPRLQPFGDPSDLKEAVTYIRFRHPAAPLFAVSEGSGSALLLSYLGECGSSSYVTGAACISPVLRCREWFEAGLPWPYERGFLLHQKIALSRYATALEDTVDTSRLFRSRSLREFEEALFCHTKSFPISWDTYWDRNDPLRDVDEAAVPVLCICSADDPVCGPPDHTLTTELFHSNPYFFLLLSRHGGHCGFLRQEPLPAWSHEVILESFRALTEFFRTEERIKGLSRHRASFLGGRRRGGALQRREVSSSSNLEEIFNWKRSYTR
Description: as §2, §3

[5] = molecular target: T5, OCI-AML5 total protein extracts (cyclin K, CDKs, DDB1) (Homo sapiens, UniProt P21439); experiment: as above; type: binding, H. sapiens; settings: protein ABCB4 (P21439)
T5 construct: endogenous in cells; host or cells: OCI-AML5 total protein extract
T5 sequence (P21439 whole entry): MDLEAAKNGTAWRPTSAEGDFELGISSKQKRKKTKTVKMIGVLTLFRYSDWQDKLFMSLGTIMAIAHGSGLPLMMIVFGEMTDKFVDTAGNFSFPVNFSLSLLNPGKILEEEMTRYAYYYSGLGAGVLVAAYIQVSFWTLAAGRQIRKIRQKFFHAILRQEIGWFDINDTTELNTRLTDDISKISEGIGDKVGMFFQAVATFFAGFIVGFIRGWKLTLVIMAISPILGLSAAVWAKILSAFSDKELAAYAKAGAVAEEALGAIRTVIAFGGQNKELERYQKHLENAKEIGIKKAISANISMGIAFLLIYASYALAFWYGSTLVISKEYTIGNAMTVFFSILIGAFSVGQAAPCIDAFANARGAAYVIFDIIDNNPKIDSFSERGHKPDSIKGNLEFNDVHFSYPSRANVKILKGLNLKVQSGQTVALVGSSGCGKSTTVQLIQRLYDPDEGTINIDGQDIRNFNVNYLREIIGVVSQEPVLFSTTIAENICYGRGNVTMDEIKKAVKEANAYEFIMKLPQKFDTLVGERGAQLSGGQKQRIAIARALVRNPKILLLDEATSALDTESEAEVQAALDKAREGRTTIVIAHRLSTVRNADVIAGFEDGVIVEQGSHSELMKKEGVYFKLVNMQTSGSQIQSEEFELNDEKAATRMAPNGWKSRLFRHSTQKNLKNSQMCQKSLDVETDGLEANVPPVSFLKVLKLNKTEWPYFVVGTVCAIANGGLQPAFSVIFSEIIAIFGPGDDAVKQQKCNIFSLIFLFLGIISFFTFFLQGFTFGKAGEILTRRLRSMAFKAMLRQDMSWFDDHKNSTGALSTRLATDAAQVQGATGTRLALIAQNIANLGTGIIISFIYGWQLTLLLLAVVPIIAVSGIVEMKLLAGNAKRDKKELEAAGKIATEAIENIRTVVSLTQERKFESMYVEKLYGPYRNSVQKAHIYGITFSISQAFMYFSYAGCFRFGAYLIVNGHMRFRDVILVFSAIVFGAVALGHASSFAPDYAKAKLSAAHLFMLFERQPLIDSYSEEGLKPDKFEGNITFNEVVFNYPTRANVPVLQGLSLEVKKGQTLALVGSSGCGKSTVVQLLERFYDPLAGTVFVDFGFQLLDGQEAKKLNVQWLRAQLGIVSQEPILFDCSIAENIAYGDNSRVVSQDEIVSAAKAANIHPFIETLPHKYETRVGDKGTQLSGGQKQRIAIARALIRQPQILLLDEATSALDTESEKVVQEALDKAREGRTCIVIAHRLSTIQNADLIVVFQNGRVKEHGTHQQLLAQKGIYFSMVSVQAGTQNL
Description: as §2, §3

[6] = molecular target: T6, OCI-AML5 total protein extracts (cyclin K, CDKs, DDB1) (Homo sapiens, UniProt Q86UQ4); experiment: as above; type: binding, H. sapiens; settings: protein ABCA13 (Q86UQ4)
T6 construct: endogenous in cells; host or cells: OCI-AML5 total protein extract
Description: as §2, §3

[7] = molecular target: T7, OCI-AML5 total protein extracts (cyclin K, CDKs, DDB1) (Homo sapiens, UniProt Q96IU4); experiment: as above; type: binding, H. sapiens; settings: protein ABHD14B (Q96IU4)
T7 construct: endogenous in cells; host or cells: OCI-AML5 total protein extract
T7 sequence (Q96IU4 1-210): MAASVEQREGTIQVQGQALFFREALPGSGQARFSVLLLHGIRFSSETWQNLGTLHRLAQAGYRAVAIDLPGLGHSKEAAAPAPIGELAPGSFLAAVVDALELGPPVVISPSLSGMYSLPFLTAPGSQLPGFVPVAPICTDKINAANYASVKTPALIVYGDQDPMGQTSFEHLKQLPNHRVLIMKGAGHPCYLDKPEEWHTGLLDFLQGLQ
Description: as §2, §3

[8] = Homo sapiens, OCI-AML-5, OCI-AML5 cells, read-out: IC50 in AML5
[9] = Homo sapiens, OCI-AML-5, OCI-AML5 expressing shRNA CCNK (cyclin K), read-out: IC50 shRNA CCNK
[10] = Homo sapiens, OCI-AML-5, OCI-AML5 expressing shRNA CDK1, read-out: IC50 shRNA CDK1
[11] = Homo sapiens, OCI-AML-5, OCI-AML5 expressing shRNA CDK2, read-out: IC50 shRNA CDK2
[12] = Homo sapiens, OCI-AML-5, OCI-AML5 expressing shRNA CDK4, read-out: IC50 shRNA CDK4
[13] = Homo sapiens, OCI-AML-5, OCI-AML5 expressing shRNA CDK7, read-out: IC50 shRNA CDK7
[14] = Homo sapiens, OCI-AML-5, OCI-AML5 expressing shRNA CDK9, read-out: IC50 shRNA CDK9

| Compound | IC50 (OCI-AML5 cells; [8]) [µM] | IC50 [1, 9] [µM] | IC50 [1, 10] [µM] | IC50 [1, 11] [µM] | IC50 [1, 12] [µM] | IC50 [1, 13] [µM] | IC50 [1, 14] [µM] | Class [1] | inhibition at 1 µM (CDK9/CyclinT) [%] | inhibition at 1 µM (CDK1) [%] | % degradation cyclin K-eGFP (cyclin KeGFP) [%] | Ratio shCUL4A/shCTRL [2] | class based on cellular selectivity [1] | also measured |
| --- | --- | --- | --- | --- | --- | --- | --- | --- | --- | --- | --- | --- | --- | --- |
| O=C(Cc1ccc(NC(=O)c2cccnc2)cc1)Nc1ncc(SCc2cccnc2)s1 [UOM-005475] | 0.75 | 0.574 | 0.314 | 0.73 | 0.709 | 0.658 | 0.299 | 2 | 63 | 100 | 0 | 1.05 | – | – |
| O=C(Cc1ccc(NC(=O)c2ccncc2)cc1)Nc1ncc(SCc2cccnc2)s1 [UOM-005476] | 0.66 | 0.576 | 0.35 | 0.574 | 0.626 | 0.646 | 0.27 | 2 | 66 | 87 | 1 | 0.87 | Class II | – |
| O=C(Cc1coc2cc3c(cc12)CCC3)Nc1ncc(SCc2cccnc2)s1 [UOM-005479] | 1.95 | 0.888 | 2.24 | 2.43 | 1.92 | 2.27 | 1.69 | 1 | 100 | 37 | 76 | 1.94 | Class I (effective cyclin K MGDs (decreased IC50 in cyclin K depleted cells only, and >65% degradation of cyclin KeGFP)) | – |
| O=C(Cc1ccc(-c2ccncc2)cc1)Nc1ncc(SCc2cccnc2)s1 [UOM-005550] | 1.07 | 0.481 | 0.566 | 0.912 | 0.897 | 0.916 | 0.554 | mixed 1-2 | 64 | 35 | 35 | 0.87 | – | – |
| CN(C)c1ccc(CC(=O)Nc2ncc(C(C)(C)C)s2)cc1 [UOM-005605] | – | – | – | – | – | – | – | 1 | – | – | 76 | 4.63 | Class I (effective cyclin K MGDs (decreased IC50 in cyclin K depleted cells only, and >65% degradation of cyclin KeGFP)) | IC50 (OCI-AML5 cells; OCI-AML5 cells, read-out: IC50 in AML5): 1.03 µM; IC50 ([1]; OCI-AML5 expressing shRNA CCNK (cyclin K), read-out: IC50 shRNA CCNK): 0.341 µM; IC50 ([1]; OCI-AML5 expressing shRNA CDK1, read-out: IC50 shRNA CDK1): 1.14 µM; IC50 ([1]; OCI-AML5 expressing shRNA CDK2, read-out: IC50 shRNA CDK2): 1.14 µM; IC50 ([1]; OCI-AML5 expressing shRNA CDK4, read-out: IC50 shRNA CDK4): 0.996 µM; IC50 ([1]; OCI-AML5 expressing shRNA CDK7, read-out: IC50 shRNA CDK7): 1.08 µM; IC50 ([1]; OCI-AML5 expressing shRNA CDK9, read-out: IC50 shRNA CDK9): 0.969 µM; % CDK9 inhibition (CDK9/CyclinT): 5%; % CDK1 inhibition (CDK1): 1% |
| O=C(Cc1ccc(N2CCOCC2)cc1)Nc1ncc(SCc2cccnc2)s1 [UOM-005606] | 1.33 | 0.785 | 0.701 | 1.44 | 1.84 | 1.47 | 0.793 | mixed 1-2 | 65 | 81 | 45 | 1.07 | – | – |
| O=C(Cc1ccc(N2CCCC2)cc1)Nc1ncc(SCc2cccnc2)s1 [UOM-005608] | 0.152 | 0.0452 | 0.16 | 0.18 | 0.161 | 0.17 | 0.125 | 1 | 54 | 63 | 77 | 2.84 | Class I (effective cyclin K MGDs (decreased IC50 in cyclin K depleted cells only, and >65% degradation of cyclin KeGFP)) | – |
| CC(=O)N1CCN(c2ccc(CC(=O)Nc3ncc(SCc4cccnc4)s3)cc2)CC1 [UOM-005614] | 1.73 | 1.37 | 0.648 | 1.72 | 2.15 | 1.4 | 0.743 | 2 | 84 | 43 | 0 | 0.67 | Class II | – |
| CN(CCOCCOCCN)c1ccc(CC(=O)Nc2nnc(SCc3cccnc3)s2)cc1 [UOM-005839] | – | – | – | – | – | – | – | – | – | – | – | – | – | IC50 (OCI-AML5 cells; Homo sapiens, OCI-AML-5, 96 h, 4 days incubation, read-out: IC50 OCI-AML5): > 10 µM; UOM-005839_centered ([3]; centered abundance): -1.3; UOM-005839_vs_Beads_ratio ([3]; immobilized probe vs beads): 1.31; UOM-005839_centered ([4]; centered abundance): 0.886; UOM-005839_vs_Beads_ratio ([4]; immobilized probe vs beads): 4.56; UOM-005839_centered ([5]; centered abundance): 0.902; UOM-005839_vs_Beads_ratio ([5]; immobilized probe vs beads): -2; UOM-005839_centered ([6]; centered abundance): 0.126; UOM-005839_vs_Beads_ratio ([6]; immobilized probe vs beads): -0.0556; UOM-005839_centered ([7]; centered abundance): 0.505; UOM-005839_vs_Beads_ratio ([7]; immobilized probe vs beads): 3.62 |
